According to patent publication US20170007615A1, “Antibacterial Compounds” (priority 2014, published 2017):
In brackets after ≈: the same amount, converted by molar mass.

Tests used:
[1] = tested on: A. baumannii (ATCC 19606); test: microbe, parasite or virus in culture; settings: Acinetobacter baumannii, ATCC19606, read-out: MIC Compound alone
E. coli (ATCC 25922) [2] = settings: Table 1; (b) No effect
[3] = tested on: A. baumannii (ATCC 19606); settings: Table 4
E. coli (ATCC 25922) [4] = test: microbe, parasite or virus in culture; settings: Escherichia coli, ATCC25922, read-out: MIC Compound alone, Table 1
[5] = tested on: H. influenzae (ATCC 49247); test: Antibacterial activity (MIC), Gram-negative type strain; assay type: cell-based, Haemophilus influenzae; settings: Table 13; for MIC: Haemophilus influenzae, ATCC49247
E. faecalis (ATCC 29212) = test: Antibacterial activity (MIC), Gram-positive type strain; assay type: cell-based, Enteroccocus faecalis; settings: Table 13; for MIC: Enterococcus faecalis, ATCC29212
S. aureus (ATCC 29213) = test: as above; assay type: cell-based, Staphylococcus aureus; settings: Table 13; for MIC: Staphylococcus aureus, ATCC29213
[6] = tested on: N. gonorrheae (ATCC 49226); test: Antibacterial activity (MIC), Gram-negative type strain; assay type: cell-based, Neisseria gonorrhoeae; settings: Table 13; for MIC: Neisseria gonorrhoeae, ATCC49226

| Molecule | MIC [1] [µg/mL] | MIC of Compound (μg/ml) in the presence of PMBN (128 μg/ml) (E. coli (ATCC 25922) [2]) [µg/mL] | MIC of Compound (μg/ml) in the presence of PMBN (128 μg/ml) [3] [µg/mL] | MIC (E. coli (ATCC 25922) [4]) [µg/mL] | MIC [5] [µg/mL] | MIC (E. faecalis (ATCC 29212)) [µg/mL] | MIC (S. aureus (ATCC 29213)) [µg/mL] | MIC [6] [µg/mL] | MIC vs. H. influenzae (ATCC 49247) [5] [µg/mL] | MIC vs. E. faecalis (ATCC 29212) (E. faecalis (ATCC 29212)) | MIC vs. S. aureus (ATCC 29213) (S. aureus (ATCC 29213)) [µg/mL] | MIC vs. N. gonorrheae (ATCC 49226) [6] |
| --- | --- | --- | --- | --- | --- | --- | --- | --- | --- | --- | --- | --- |
| CCNC(=O)Nc1nc2cc(-c3cnc(C(C)(O)CO)nc3)cc(-c3ncc(C)cn3)c2s1 (stereo not shown) [Compound A-8, 1-[5-[2-(1,2-Dihydroxy-1-methyl-ethyl)pyrimidin-5-yl]-7-(5-methylpyrimidin-2-yl)-1,3-benzothiazol-2-yl]-3-ethyl-urea] | 2 (≈ 4.3 µM) | 0.06 | 0.25 | 4 (≈ 8.59 µM) | – | – | – | – | – | – | – | – |
| CCNC(=O)Nc1nc2cc(-c3cnc(NS(=O)(=O)c4ccccc4C(=O)O)nc3)cc(-c3ccccn3)c2s1 [Compound A-10, 2-[[5-[2-(Ethylcarbamoylamino)-7-(2-pyridyl)-1,3-benzothiazol-5-yl]pyrimidin-2-yl]sulfamoyl]benzoic acid] | – | 4 | – | > 64 | 4 (≈ 6.95 µM) | 0.5 (≈ 0.869 µM) | 2 (≈ 3.47 µM) | 0.25 (≈ 0.434 µM) | – | – | – | – |
| CCNC(=O)Nc1nc2cc(-c3cnc(NS(=O)(=O)N4CCCC4)nc3)cc(-c3ccc(C)cn3)c2s1 [Compound A-11, 1-Ethyl-3-[7-(5-methyl-2-pyridyl)-5-[2-(pyrrolidin-1-ylsulfonylamino)pyrimidin-5-yl]-1,3-benzothiazol-2-yl]urea] | – | 0.015 | – | 2 (≈ 3.71 µM) | 0.06 (≈ 0.111 µM) | ≤ 0.008 | 0.004 (≈ 0.00743 µM) | 0.015 (≈ 0.0278 µM) | – | – | – | – |
| CCCS(=O)(=O)Nc1ncc(-c2cc(-c3ccc(C)cn3)c3sc(NC(=O)NCC)nc3c2)cn1 [Compound A-12, 1-Ethyl-3-[7-(5-methyl-2-pyridyl)-5-[2-(propylsulfonylamino)pyrimidin-5-yl]-1,3-benzothiazol-2-yl]urea] | – | 0.008 | – | 2 (≈ 3.91 µM) | 0.015 (≈ 0.0293 µM) | ≤ 0.008 | ≤ 0.002 | ≤ 0.008 | – | – | – | – |
| CCNC(=O)Nc1nc2cc(-c3cnc(NS(=O)(=O)C(C)(C)CO)nc3)cc(-c3ccc(C)cn3)c2s1 [Compound A-14, 1-Ethyl-3-[5-[2-[(2-hydroxy-1,1-dimethyl-ethyl)sulfonylamino]pyrimidin-5-yl]-7-(5-methyl-2-pyridyl)-1,3-benzothiazol-2-yl]urea] | – | 0.03 | – | 4 (≈ 7.38 µM) | 0.015 (≈ 0.0277 µM) | ≤ 0.008 | 0.03 (≈ 0.0554 µM) | 0.015 (≈ 0.0277 µM) | – | – | – | – |
| CCNC(=O)Nc1nc2cc(-c3cnc(NS(=O)(=O)N(C)CCO)nc3)cc(-c3ccc(C)cn3)c2s1 [Compound A-15, 1-Ethyl-3-[5-[2-[[2-hydroxyethyl(methyl)sulfamoyl]amino]pyrimidin-5-yl]-7-(5-methyl-2-pyridyl)-1,3-benzothiazol-2-yl]urea] | – | 0.03 | – | 4 (≈ 7.37 µM) | 0.03 (≈ 0.0553 µM) | 0.015 (≈ 0.0276 µM) | 0.12 (≈ 0.221 µM) | ≤ 0.008 | – | – | – | – |
| CCNC(=O)Nc1nc2cc(-c3cnc(NS(=O)(=O)C4CCCC4)nc3)cc(-c3ccc(C)cn3)c2s1 [Compound A-21, 1-[5-[2-(cyclopentylsulfonylamino)pyrimidin-5-yl]-7-(5-methyl-2-pyridyl)-1,3-benzothiazol-2-yl]-3-ethyl-urea] | 1 (≈ 1.86 µM) | – | 0.03 | – | 0.03 (≈ 0.0558 µM) | ≤ 0.008 | ≤ 0.002 | ≤ 0.008 | – | – | – | – |
| CCNC(=O)Nc1nc2cc(-c3cnc(NS(=O)(=O)N4CC[C@@H](N5CCOCC5)C4)nc3)cc(-c3ccc(C)cn3)c2s1 [Compound A-56, (R)—N-(5-(2-(3-ethylureido)-7-(5-methylpyridin-2-yl)benzo[d]thiazol-5-yl)pyrimidin-2-yl)-3-morpholinopyrrolidine-1-sulfonamide] | – | – | – | – | 0.12 (≈ 0.192 µM) | 0.015 (≈ 0.024 µM) | 0.06 (≈ 0.0962 µM) | 0.06 (≈ 0.0962 µM) | – | – | – | – |
| CCNC(=O)Nc1nc2cc(-c3cnc(NS(=O)(=O)N4CC[C@@H](N(C)C)C4)nc3)cc(-c3ccc(C)cn3)c2s1 [Compound A-57, (R)-3-(dimethylamino)-N-(5-(2-(3-ethylureido)-7-(5-methylpyridin-2-yl)benzo[d]thiazol-5-yl)pyrimidin-2-yl)pyrrolidine-1-sulfonamide] | – | – | – | – | 0.5 (≈ 0.86 µM) | 0.03 (≈ 0.0516 µM) | 0.25 (≈ 0.43 µM) | 0.12 (≈ 0.206 µM) | – | – | – | – |
| CCNC(=O)Nc1nc2cc(-c3cnc(NS(=O)(=O)C4CCN(C(C)=O)C4)nc3)cc(-c3ccc(C)cn3)c2s1 (stereo not shown) [Compound A-58, 1-acetyl-N-(5-(2-(3-ethylureido)-7-(5-methylpyridin-2-yl)benzo[d]thiazol-5-yl)pyrimidin-2-yl)pyrrolidine-3-sulfonamide] | – | – | – | – | 1 (≈ 1.72 µM) | 0.25 (≈ 0.431 µM) | 2 (≈ 3.44 µM) | 0.03 (≈ 0.0517 µM) | – | – | – | – |
| CCNC(=O)Nc1nc2cc(-c3cnc(NS(=O)(=O)N4CC[C@@H](O)C4)nc3)cc(-c3ccc(C)cn3)c2s1 [Compound A-59, (R)—N-(5-(2-(3-ethylureido)-7-(5-methylpyridin-2-yl)benzo[d]thiazol-5-yl)pyrimidin-2-yl)-3-hydroxypyrrolidine-1-sulfonamide] | – | – | – | – | 0.03 (≈ 0.0541 µM) | 0.015 (≈ 0.027 µM) | 0.12 (≈ 0.216 µM) | 0.015 (≈ 0.027 µM) | – | – | – | – |
| CCNC(=O)Nc1nc2cc(-c3cnc(NS(=O)(=O)N4CC[C@H](O)C4)nc3)cc(-c3ccc(C)cn3)c2s1 [Compound A-60, (S)—N-(5-(2-(3-ethylureido)-7-(5-methylpyridin-2-yl)benzo[d]thiazol-5-yl)pyrimidin-2-yl)-3-hydroxypyrrolidine-1-sulfonamide] | – | – | – | – | 0.03 (≈ 0.0541 µM) | 0.06 (≈ 0.108 µM) | 0.12 (≈ 0.216 µM) | ≤ 0.008 | – | – | – | – |
| CCNC(=O)Nc1nc2cc(-c3cnc(NS(=O)(=O)C(C)(C)C)nc3)c(F)cc2s1 [Compound A-61, N-(5-(2-(3-ethylureido)-6-fluorobenzo[d]thiazol-5-yl)pyrimidin-2-yl)-2-methylpropane-2-sulfonamide] | – | – | – | – | 0.12 (≈ 0.265 µM) | 0.06 (≈ 0.133 µM) | 0.06 (≈ 0.133 µM) | 0.25 (≈ 0.552 µM) | – | – | – | – |
| CCNC(=O)Nc1nc2cc(-c3ccn(C)c(=O)c3)cc(-c3ccccn3)c2s1 [Example 51 (WO2007/148093)] | 4 (≈ 9.86 µM) | 0.06 | 0.5 | 16 (≈ 39.5 µM) | – | – | – | – | – | – | – | – |
| N-(5-(2-(3-ethylureido)-7-(5-methylpyridin-2-yl)benzo[d]thiazol-5-yl)pyrimidin-2-yl)-N-methylmethanesulfonamide [Compound A-29] | – | – | – | – | – | – | – | – | 2 | 0.06 µg/mL | 0.25 | 0.25 µg/mL |
| N-(5-(2-(3-ethylureido)-7-(pyridin-2-yl)benzo[d]thiazol-5-yl)pyrimidin-2-yl)morpholine-4-sulfonamide [Compound A-43] | – | – | – | – | – | – | – | – | 0.03 | <=0.008 μg/ml | 0.12 | <=0.008 μg/ml |
